Earlier results on 2 molecules are cited in patent publication US9609876B2, “Antimicrobial compositions” (priority 2012, dated 2017).

The structures appear in SMILES notation.

The conditions of data set [1]: in vivo.

Broadly, the LD50 is the dose expected to kill half of the subjects tested. `CC(=O)CCC(=O)O` [Levulinic acid]: in data set [1], the LD50 was 1850 mg/kg.
As to `CCCCCCCCCCCC(=O)N[C@@H](CCCNC(=N)N)C(=O)OCC.Cl` [LAE, N^α-lauroyl-L-arginine ethyl ester monohydrochloride], the “pH range in which it is stable and maintains its antimicrobial activity” value was 3-7.
